In patent US20250282726A1, “5-BROMO-2-HYDROXY-N'-[(1E)-1-(PYRIDIN-2-YL) ETHYLIDENE]BENZOHYDRAZIDE AS AN ANTI-CANCER AND ANTIMICROBIAL AGENT” (KING SAUD UNIVERSITY, priority 2024, published 2025):

Assays:
Format in all cases: cell-based
[1] = tested on: Trichoderma harzianum (carsm-2); test: Antimicrobial study, diameter of inhibition zone; conditions: Fungi
Source text: (§1) Two gram-positive Staphylococcus aureus (cars-2) and Bacillus Megnaterium, two gram-negative Escherichia coli (carsgn-2) and Salmonella Typhi (JCM-1652) bacteria, and two fungal strains Trichoderma harzianum (carsm-2) and Aspergillus niger (carsm-3) were used in this study.

[2] = tested on: Aspergillus niger (carsm-3); test: Antimicrobial study, diameter of inhibition zone; conditions: Fungi
Source text: as §1

[3] = tested on: Escherichia coli (carsgn-2); test: Antimicrobial study, diameter of inhibition zone; conditions: for Diameter of inhibition zones, E. coli: Gram (−) bacteria
Method: (§2) Initially, compound L was tested against some Gram-negative and Gram-positive bacteria and the fungus strain.
as §1

Bacillus Megnaterium = test: Antimicrobial study, diameter of inhibition zone; conditions: for Diameter of inhibition zones, B. megnaterium: Gram (+) bacteria
Method: as §2, §1

[4] = tested on: Salmonella Typhi (JCM-1652); test: Antimicrobial study, diameter of inhibition zone; conditions: for Diameter of inhibition zones, S. typhi: Gram (−) bacteria
Method: as §2, §1

[5] = tested on: Staphylococcus aureus (cars-2); test: Antimicrobial study, diameter of inhibition zone; conditions: for Diameter of inhibition zones, S. aureus: Gram (+) bacteria
Method: as §2, §1

[6] = tested on: hepatocellular carcinoma (HepG2); test: MTT in vitro cytotoxicity assay; conditions: Homo sapiens, read-out: % cell viability
Method: (§3) Two human cancer cell lines were utilized in the cytotoxicity assay. They were lung cancer (A549) and hepatocellular carcinoma (HepG2). A549 and HepG2 cells were cultured in a DMEM medium supplemented with 10% Fetal Bovine Serum (FBS), and 1% Antibiotic-Antimycotic at 37° C., with 5% CO2 in a 75 cm^2 tissue culture flask.
(§4) The conversion of yellow MTT to purple formazan crystals by mitochondrial dehydrogenase of viable cell enzymes was used to assess the magnitude of cellular cytotoxicity exerted by different concentrations of L as explained earlier Kazi et al. 2023 and modified by Kumar et al. 2022. Briefly, cancer cells were plated in 96-well plates (2×10^3 cells/well) in full cell growth medium and incubated for 24 h at 37° C. under a humidified atmosphere of 5% CO2. The cell medium was then replaced by a cell growth medium containing 5% FBS (DMEM medium), containing different concentrations of L. This experiment was performed in two batches. In the first batch, concentrations of L were 1.95, 3.9, 7.8, 15.6, 31.25, 62.5, 125 and 250 μg/ml with control (without any treatment). In the second batch, concentrations of L were 0.078, 0.156, 0.312, 0.625, 1.25, 2.5, 5.0, and 10.0 μg/mL with control (without any treatment). After 72 hours of incubation, medium in all test and control wells was substituted by 100 µL/well of MTT solution (0.5 mg/mL, in PBS) and incubated for a further 3 h at 37° C. Afterwards, the MTT solution was replaced with 100 μL isopropanol/well to dissolve the purple formazan crystals formed at the bottom of the wells, with shaking for at least 2 h at room temperature in dark. Subsequently, the color intensity in the wells was measured at 549 nm with a Bio-Tek microplate reader (ELX 800; Bio-Tek Instruments, Winooski, VT, USA). The results were analyzed in triplicates and the viability percentage was calculated. The data are presented as the percentages of viable cells in the test wells compared to those of the control group. The following equation was used to calculate the cell viability: […]
(§5) Liver and lung cancer cell lines were used to observe the antiproliferative effects of different concentrations of L as a growth-inhibiting study utilizing MTT-based viability assays. The MTT assay is based on mitochondrial activity. […] The results of both batches are admirable and far better than earlier reported publications. Therefore, we repeated this experiment with lung cancer cell lines and found almost similar results (FIGS. 9 and 10) as were with liver cancer cells.

lung cancer (A549) = test: MTT in vitro cytotoxicity assay; conditions: Homo sapiens, lung cancer cells, MTT 72 h
Method: as §3, §4, §5

SMILES: C[C@@H]1[C@H](O)[C@@H](C)/C=C/C=C/C=C/C=C/C=C/C=C/C=C/[C@H](O[C@@H]2O[C@H](C)[C@@H](O)[C@H](N)[C@@H]2O)C[C@@H]2O[C@](O)(C[C@@H](O)C[C@@H](O)[C@H](O)CC[C@@H](O)C[C@@H](O)CC(=O)O[C@H]1C)C[C@H](O)[C@H]2C(=O)O [Amphotericin-B, reference compound]
- Diameter of inhibition zones, T. harzianum [1]: 17.0 mm
- Diameter of inhibition zones, A. niger [2]: 8.0 mm

SMILES: CO/N=C(\C(=O)N[C@@H]1C(=O)N2C(C(=O)O)=C(CSc3nc(=O)c(=O)[nH]n3C)CS[C@H]12)c1csc(N)n1 [Ceftriaxone, reference compound]
- Diameter of inhibition zones, E. coli [3]: 38.0 mm
- Diameter of inhibition zones, B. megnaterium (Bacillus Megnaterium): 50.0 mm
- Diameter of inhibition zones, S. typhi [4]: 44.0 mm
- Diameter of inhibition zones, S. aureus [5]: 40.0 mm

SMILES: C/C(=N\NC(=O)c1cc(Br)ccc1O)c1ccccn1 [Compound L, 5-bromo-2-hydroxy-N′-[(1E)-1-(pyridin-2-yl)ethylidene]benzohydrazide]
- Diameter of inhibition zone ([3]; Escherichia coli): 17 mm
- Diameter of inhibition zones, E. coli [3]: 17 mm
- Diameter of inhibition zone (Bacillus Megnaterium; Bacillus Megaterium): 20 mm
- Diameter of inhibition zones, B. megnaterium (Bacillus Megnaterium): 20 mm
- Diameter of inhibition zones, S. typhi [4]: 26 mm
- Diameter of inhibition zone ([4]; Salmonella typhi): 26 mm
- Diameter of inhibition zones, S. aureus [5]: 24 mm
- Diameter of inhibition zone ([5]; Staphylococcus aureus): 24 mm
- Diameter of inhibition zones, T. harzianum [1]: 12 mm
- Diameter of inhibition zones, A. niger [2]: 12 mm
- viability at 0.078 µg/mL ([6]; HepG2, 72 h): 34.4%
- viability at 1.95 µg/mL ([6]; HepG2, 72 h): 14.8%
- viability at 0.156 µg/mL ([6]; HepG2, liver cancer cells, 0.156 μg/mL, MTT 72 h, FIG. 2): 24.4%
- viability at 0.312 µg/mL ([6]; HepG2, liver cancer cells, 0.312 μg/mL, MTT 72 h, FIG. 2): 28%
- viability at 0.625 µg/mL ([6]; HepG2, liver cancer cells, 0.625 μg/mL, MTT 72 h, FIG. 2): 20.3%
- viability at 1.25 µg/mL ([6]; HepG2, liver cancer cells, 1.25 μg/mL, MTT 72 h, FIG. 2): 20.2%
- viability at 2.5 µg/mL ([6]; HepG2, liver cancer cells, 2.5 μg/mL, MTT 72 h, FIG. 2): 12.7%
- viability at 3.9 µg/mL ([6]; HepG2, liver cancer cells, 3.9 μg/mL, MTT 72 h, FIG. 3): 12.2%
- viability at 5 µg/mL ([6]; HepG2, liver cancer cells, 5.0 μg/mL, MTT 72 h, FIG. 2): 10.9%
- viability at 7.8 µg/mL ([6]; HepG2, liver cancer cells, 7.8 μg/mL, MTT 72 h, FIG. 3): 9.57%
- viability at 10 µg/mL ([6]; HepG2, liver cancer cells, 10.0 μg/mL, MTT 72 h, FIG. 2): 10.4%
- viability at 15.6 µg/mL ([6]; HepG2, liver cancer cells, 15.6 μg/mL, MTT 72 h, FIG. 3): 8.96%
- viability at 31.25 µg/mL ([6]; HepG2, liver cancer cells, 31.25 μg/mL, MTT 72 h, FIG. 3): 9.09%
- viability at 62.5 µg/mL ([6]; HepG2, liver cancer cells, 62.5 μg/mL, MTT 72 h, FIG. 3): 8.86%
- viability at 125 µg/mL ([6]; HepG2, liver cancer cells, 125 μg/mL, MTT 72 h, FIG. 3): 9.34%
- viability at 250 µg/mL ([6]; HepG2, liver cancer cells, 250 μg/mL, MTT 72 h, FIG. 3): 9.38%
- viability at 0.078 µg/mL (lung cancer (A549); 0.078 μg/mL, FIG. 4, read-out: % cell viability): 18.6%
- viability at 0.156 µg/mL (lung cancer (A549); 0.156 μg/mL, FIG. 4, read-out: % cell viability): 13.2%
- viability at 0.312 µg/mL (lung cancer (A549); 0.312 μg/mL, FIG. 4, read-out: % cell viability): 12.8%
- viability at 0.625 µg/mL (lung cancer (A549); 0.625 μg/mL, FIG. 4, read-out: % cell viability): 12.3%
- viability at 1.25 µg/mL (lung cancer (A549); 1.25 μg/mL, FIG. 4, read-out: % cell viability): 12.1%
- viability at 1.95 µg/mL (lung cancer (A549); 1.95 μg/mL, FIG. 5, read-out: % cell viability): 18%
- viability at 2.5 µg/mL (lung cancer (A549); 2.5 μg/mL, FIG. 4, read-out: % cell viability): 11.7%
- viability at 3.9 µg/mL (lung cancer (A549); 3.9 μg/mL, FIG. 5, read-out: % cell viability): 16.7%
- viability at 5 µg/mL (lung cancer (A549); 5.0 μg/mL, FIG. 4, read-out: % cell viability): 11%
- viability at 7.8 µg/mL (lung cancer (A549); 7.8 μg/mL, FIG. 5, read-out: % cell viability): 12.5%
- viability at 10 µg/mL (lung cancer (A549); 10.0 μg/mL, FIG. 4, read-out: % cell viability): 11.1%
- viability at 15.6 µg/mL (lung cancer (A549); 15.6 μg/mL, FIG. 5, read-out: % cell viability): 11.8%
- viability at 31.25 µg/mL (lung cancer (A549); 31.25 μg/mL, FIG. 5, read-out: % cell viability): 11.7%
- viability at 62.5 µg/mL (lung cancer (A549); 62.5 μg/mL, FIG. 5, read-out: % cell viability): 11.4%
- viability at 125 µg/mL (lung cancer (A549); 125 μg/mL, FIG. 5, read-out: % cell viability): 11.6%
- viability at 250 µg/mL (lung cancer (A549); 250 μg/mL, FIG. 5, read-out: % cell viability): 11.6%
